Assay results reported in paper PMC10879502, “Linking ATP and allosteric sites to achieve superadditive binding with bivalent EGFR kinase inhibitors” (Communications Chemistry, 2024).
“And” between values parts separate entries of the source, which are not always exact repeats. Equal entries are not always repeated. Where two headings read alike, the source gives them in different places. One block for each compound: values may come before it.

What was measured:
[1] = target: T1, EGFR L858R/T790M (LRTM) kinase domain (Homo sapiens, UniProt P00533, L858R/T790M); experiment: HTRF KinEASE-TK kinase activity assay; format: biochemical; conditions: for linking coefficients: limits estimated from LRTM IC50 values; for Linking coefficient E: LRTM IC50, upper limit; for activity: LRTM, read-out: percent inhibition
T1 construct: The EGFR kinase domain (residues 696–1022) was cloned into pTriEx; 6xHis (N, cleaved yes); GST (N, cleaved yes); made in house; host or cells: SF9 insect cells, baculovirus

WT EGFR kinase domain = target: T2, WT EGFR kinase domain (Homo sapiens, UniProt P00533); experiment: HTRF KinEASE-TK kinase activity assay; format: biochemical
T2 construct: The EGFR kinase domain (residues 696–1022) was cloned into pTriEx; 6xHis (N, cleaved yes); GST (N, cleaved yes); made in house; host or cells: SF9 insect cells, baculovirus

[2] = target: T3, EGFR L858R (LR) kinase domain (Homo sapiens, UniProt P00533, L858R); experiment: HTRF KinEASE-TK kinase activity assay; format: biochemical
T3 construct: The EGFR kinase domain (residues 696–1022) was cloned into pTriEx; 6xHis (N, cleaved yes); GST (N, cleaved yes); made in house; host or cells: SF9 insect cells, baculovirus

[3] = target: T4, EGFR L858R/T790M/C797S (LRTMCS) kinase domain (Homo sapiens, UniProt P00533, C797S/L858R/T790M); experiment: HTRF KinEASE-TK kinase activity assay; format: biochemical
T4 construct: The EGFR kinase domain (residues 696–1022) was cloned into pTriEx; 6xHis (N, cleaved yes); GST (N, cleaved yes); made in house; host or cells: SF9 insect cells, baculovirus

[4] = tested on: EGFR phosphorylation (pY1068) in H1975 cells; experiment: Western blot; format: cell-based, human; conditions: H1975, 6 h
Protocol: H1975, H3255, H3255GR and HCC827 lung adenocarcinoma cells (obtained from Dr. Pasi Jänne in Dana-Farber Cancer Institute, 2022) were cultured in RPMI 1640 media (Corning, 1004-CV) supplemented with 10% FBS (Tissue Culture Biologicals, 35-010-CV) and 1% penicillin-streptomycin (P/S, Corning, 30-002-CI). All cell lines were tested negative for Mycoplasma using Myco-Sniff-Rapid™ Mycoplasma Luciferase Detection Kit Plus PCR Primer Set (MP biomedicals, 0930504-CF) and were passaged and/or used for no longer than 4 weeks for all experiments H1975 and HCC-827 cells were seeded in 6-well plates with 400,000 cells per well and incubated overnight. H3255 and H3255GR cells were seeded in 12-well plates with 200,000 cells per well and were grown to confluency after 48 h. Culture medium was removed, cells washed with PBS, and lysed with lysis buffer containing 5 M NaCl, 1 M TRIS pH 8.0, 10% SDS, 10% Triton X-100 and a tablet of protease and phosphatase inhibitor. Protein lysate concentration was analyzed using Pierce BCA kit (ThermoFisher, 23225). Protein samples (10 µg) were resolved on hand-cast Criterion Tris-HCl protein gels. Primary antibodies used; phospho-EGFR (Tyr1068; #2234, 1:1,000), EGFR (#4267; 1:1,000), phospho-AKT (Ser473; #4060, 1:1,000), AKT (#9272, 1:1,000), phospho-ERK1/2 (Thr202/Tyr204; #4370, 1:1,000), and ERK1/2 (#4695, 1:1,000) antibodies; were purchased from Cell Signaling Technology. Secondary Goat anti-rabbit IgG starbright blue 700 (Biorad, 64484700) and Anti-tubulin hFAB Rhodamine Tubulin (Bio-Rad, 64512248). Western blots were visualized with the ChemiDoc MP imager (Bio-Rad) utilizing the Image Lab Touch Software (version 2.4.0.03). All Western blot images are representatives of at least 3 independent replicate experiments.

[5] = tested on: Ba/F3 cells, wildtype EGFR; conditions: Ba/F3 ref 4 Wittlinger and Heppner; read-out: EGFR EC50, wt; cited from earlier work
Ba/F3 cells, L858R EGFR = conditions: Ba/F3 ref 4 Wittlinger and Heppner; read-out: EGFR EC50, LR; cited from earlier work
[6] = tested on: Ba/F3 cells, LR/TM/CS EGFR; conditions: Ba/F3 ref 4 Wittlinger and Heppner; cited from earlier work
[7] = Table S1, ATP 100 µM, read-out: IC50, LRTM
[8] = enzyme 10 nM, ATP 100 µM, read-out: Biochemical EGFR IC50, WT
[9] = enzyme 0.1 nM, ATP 100 µM, read-out: Biochemical EGFR IC50, LR
[10] = enzyme 0.02 nM, ATP 100 µM, read-out: Biochemical EGFR IC50, LRTM
[11] = enzyme 0.02 nM, ATP 100 µM, read-out: Biochemical EGFR IC50, LRTMCS

SMILES: O=C1Nc2c(cccc2C(=O)Nc2nccs2)Nc2ccccc21 [Compound 11]
IC50 [1, 7]: ≥ 10000 nM

SMILES: CSc1nc(-c2ccc(F)cc2)c(-c2ccnc(NC(C)=O)c2)[nH]1 [Compound 5, reference compound]
IC50 [1, 7]: 6000 to 10000 nM and ≥ 6000 nM | IC50 [1, 10]: 5800 ± 300 nM | IC50 [3, 11]: 6000 ± 500 nM | IC50 ([3]; read-out: IC50, LRTMCS): 6000 to 10000 nM

SMILES: C=CC(=O)Nc1ccc(OC)c(Nc2cc(-c3[nH]c(SC)nc3-c3ccc(F)cc3)ccn2)c1 [Compound 7]
EC50 [5]: 20 ± 6 nM | EC50 (Ba/F3 cells, L858R EGFR): < 1 nM | EC50 [6]: 1600 ± 200 nM

Now from value to compound, other results behind:

IC50 (WT EGFR kinase domain; [8]): > 10000 nM | IC50 (WT EGFR kinase domain; read-out: IC50, WT): ≥ 1000 nM | activity at 3.181 pM ([2]; LR, [Inhibitor] 0.00318089 nM, read-out: percent inhibition): 103% | activity at 7.783 pM ([2]; LR, [Inhibitor] 0.00778314 nM, read-out: percent inhibition): 94.6% | activity at 19.04 pM ([2]; LR, [Inhibitor] 0.0190441 nM, read-out: percent inhibition): 99.4% | activity at 46.6 pM ([2]; LR, [Inhibitor] 0.0465979 nM, read-out: percent inhibition): 97.2% | activity at 0.000114018 µM ([2]; LR, [Inhibitor] 0.114018 nM, read-out: percent inhibition): 94.5% | activity at 0.000278983 µM ([2]; LR, [Inhibitor] 0.278983 nM, read-out: percent inhibition): 83% | activity at 0.000682626 µM ([2]; LR, [Inhibitor] 0.682626 nM, read-out: percent inhibition): 67.9% | activity at 0.00167028 µM ([2]; LR, [Inhibitor] 1.67028 nM, read-out: percent inhibition): 39.3% | activity at 0.0040869 µM ([2]; LR, [Inhibitor] 4.0869 nM, read-out: percent inhibition): 19.2% | activity at 0.01 µM ([2]; LR, [Inhibitor] 10 nM, read-out: percent inhibition): 9.7% | activity at 1.3 pM ([2]; LR, [Inhibitor] […], read-out: percent inhibition): 102% | IC50 [2, 9]: 1300 ± 100 nM | IC50 ([2]; read-out: IC50, LR): ≥ 1000 nM | IC50 [1, 7]: ≥ 1000 nM | IC50 [1, 10]: > 10000 nM | linking coefficients [1]: > 2e+07 M⁻¹ | activity at 3.181 pM ([3]; LRTMCS, [Inhibitor] 0.00318089 nM, read-out: percent inhibition): 103% | activity at 7.783 pM ([3]; LRTMCS, [Inhibitor] 0.00778314 nM, read-out: percent inhibition): 94.6% | activity at 19.04 pM ([3]; LRTMCS, [Inhibitor] 0.0190441 nM, read-out: percent inhibition): 99.4% | activity at 46.6 pM ([3]; LRTMCS, [Inhibitor] 0.0465979 nM, read-out: percent inhibition): 97.2% | activity at 0.000114018 µM ([3]; LRTMCS, [Inhibitor] 0.114018 nM, read-out: percent inhibition): 94.5% | activity at 0.000278983 µM ([3]; LRTMCS, [Inhibitor] 0.278983 nM, read-out: percent inhibition): 83% | activity at 0.000682626 µM ([3]; LRTMCS, [Inhibitor] 0.682626 nM, read-out: percent inhibition): 67.9% | activity at 0.00167028 µM ([3]; LRTMCS, [Inhibitor] 1.67028 nM, read-out: percent inhibition): 39.3% | activity at 0.0040869 µM ([3]; LRTMCS, [Inhibitor] 4.0869 nM, read-out: percent inhibition): 19.2% | activity at 0.01 µM ([3]; LRTMCS, [Inhibitor] 10 nM, read-out: percent inhibition): 9.7% | activity at 1.3 pM ([3]; LRTMCS, [Inhibitor] […], read-out: percent inhibition): 102% | IC50 [3, 11]: > 10000 nM | IC50 ([3]; read-out: IC50, LRTMCS): ≥ 1000 nM
SMILES: CSc1nc(-c2cccc(CN3C(=O)c4ccccc4Nc4ccc(F)cc43)c2)c(-c2ccnc(NC(C)=O)c2)[nH]1 [Compound 1]
suppression of EGFR phosphorylation [4]: limited ability to suppress phosphorylation

IC50 (WT EGFR kinase domain; [8]): < 10 nM | activity ([2]; LR, [Inhibitor] 1.3e-5 nM, read-out: percent inhibition): 95.4% and 96.9% and 90.5% | activity ([2]; LR, [Inhibitor] 3.18e-5 nM, read-out: percent inhibition): 86.7% and 90.8% and 88.7% | activity ([2]; LR, [Inhibitor] 7.78e-5 nM, read-out: percent inhibition): 65.8% and 67.4% and 61.5% | activity at 190.4 fM ([2]; LR, [Inhibitor] 0.000190441 nM, read-out: percent inhibition): 34.4% | activity at 466 fM ([2]; LR, [Inhibitor] 0.000465979 nM, read-out: percent inhibition): 15.1% | activity at 1.14 pM ([2]; LR, [Inhibitor] 0.00114018 nM, read-out: percent inhibition): 9.97% | activity at 2.79 pM ([2]; LR, [Inhibitor] 0.00278983 nM, read-out: percent inhibition): 5.05% | activity at 6.826 pM ([2]; LR, [Inhibitor] 0.00682626 nM, read-out: percent inhibition): 3.24% | activity at 16.7 pM ([2]; LR, [Inhibitor] 0.0167028 nM, read-out: percent inhibition): 1.45% | IC50 [2, 9]: 1.2 ± 0.09 nM | Linking coefficient E ([1]; ATP fragment 5, allosteric fragment 10): < 0.88 M⁻¹ | Linking coefficient E ([1]; ATP fragment 6, allosteric fragment 10): < 0. 51 M-1 | activity ([1]; [Inhibitor] 1.3e-5 nM): 80.3% and 89% and 81.1% | activity ([1]; [Inhibitor] 3.18e-5 nM): 69.3% and 75.7% and 76.3% | activity ([1]; [Inhibitor] 7.78e-5 nM): 34.1% and 36.2% and 33.7% | activity ([1]; [Inhibitor] 0.000190441 nM, 190.4 fM): 16.3% and 13.5% | activity ([1]; [Inhibitor] 0.000465979 nM, 466 fM): 5.63% and 5.16% | activity ([1]; [Inhibitor] 0.00114018 nM, 1.14 pM): 4.05% and 3.39% | activity ([1]; [Inhibitor] 0.00278983 nM, 2.79 pM): 3.12% and 3.28% | activity ([1]; [Inhibitor] 0.00682626 nM, 6.826 pM): 2.4% and 2.45% | IC50 ([1]; Table S1, read-out: IC50, LRTM): 0.051 to 0.064 nM and 0.051 to 0.059 nM | IC50 [1, 10]: 0.051 ± 0.005 nM | linking coefficients [1]: 0.5 to 1.0 M⁻¹ | activity ([3]; LRTMCS, [Inhibitor] 1.3e-5 nM, read-out: percent inhibition): 95.4% and 96.9% and 90.5% | activity ([3]; LRTMCS, [Inhibitor] 3.18e-5 nM, read-out: percent inhibition): 86.7% and 90.8% and 88.7% | activity ([3]; LRTMCS, [Inhibitor] 7.78e-5 nM, read-out: percent inhibition): 65.8% and 67.4% and 61.5% | activity at 190.4 fM ([3]; LRTMCS, [Inhibitor] 0.000190441 nM, read-out: percent inhibition): 34.4% | activity at 466 fM ([3]; LRTMCS, [Inhibitor] 0.000465979 nM, read-out: percent inhibition): 15.1% | activity at 1.14 pM ([3]; LRTMCS, [Inhibitor] 0.00114018 nM, read-out: percent inhibition): 9.97% | activity at 2.79 pM ([3]; LRTMCS, [Inhibitor] 0.00278983 nM, read-out: percent inhibition): 5.05% | activity at 6.826 pM ([3]; LRTMCS, [Inhibitor] 0.00682626 nM, read-out: percent inhibition): 3.24% | activity at 16.7 pM ([3]; LRTMCS, [Inhibitor] 0.0167028 nM, read-out: percent inhibition): 1.45% | IC50 [3, 11]: 0.063 ± 0.005 nM | IC50 ([3]; read-out: IC50, LRTMCS): 0.051 to 0.064 nM
SMILES: CCc1nc(-c2cccc(NC(=O)c3cccc4c3NC(=O)c3ccccc3N4)c2)c(-c2ccnc(NC(C)=O)c2)[nH]1 [Compound 3]
suppression of EGFR phosphorylation [4]: also effective in H1975 cells, however to a lesser extent than 4
